US20230414762A1, “PROSTATE-SPECIFIC MEMBRANE ANTIGEN (PSMA)-TARGETED PRODRUG FOR SELECTIVE KILLING OF CELLS […]” (The Johns Hopkins University, priority 2020, published 2023)
“And” between values parts separate entries of the source, which are not always exact repeats. Equal entries are not always repeated. “Also recorded” adds a separate entry of the source. Starred links: 1 amine or outer side, 2 acyl side, 3 side chain; linkers in the order of their positions; H or OH if unused. Non-standard residues stand in square brackets, D forms with d. Residues, ends and D or L forms follow the SMILES beside them. *: point of attachment. X1 = O=C(O)CC[C@H](NC(=O)N[C@@H](CCCCNC(=O)CCCCCCC(=O)*)C(=O)O)C(=O)O; Dolaproine = CO[C@@H]([C@@H]1CCCN1)[C@@H](C)C(=O)O; Dil = CC[C@H](C)[C@H](NC)[C@@H](CC(=O)O)OC; PABC = O=C(OCc1ccc(N[*:1])cc1)[*:2]; X2 = C[C@@H](N*)[C@@H](O)c1ccccc1; Cit = NC(=O)NCCC[C@H](N)C(=O)O; NMeV = CN[C@H](C(=O)O)C(C)C

What was measured:
[1] = In vivo toxicity in healthy mice (weight, survival, histopathology); parameters: species or system C57BL/6 mice
Procedure: (§1) The potential toxicity of SBPD-1 was evaluated in immunocompetent animals. MMAE (80 μg/kg), SBPD-1 (160 μg/kg), and 5% DMSO were administered to healthy C57BL/6 mice (n=5). Animals were monitored for 80 days after initiation of administration. […] Lung, liver, kidneys, salivary and lacrimal glands were removed from all tested animals at Day 80 after initiation of SBPD-1 treatment. […] Peripheral blood also was obtained from mice injected with vehicle, SBPD-1, and healthy untreated animals, and prepared serum for chemistry studies (n=5).
(§2) Male C57BL/6 mice were purchased from Jackson Laboratory. Ten-week-old mice were injected with the indicated doses of MMAE (formulated in 5% DMSO), SBPD-1 (formulated in saline) or 5% DMSO intraperitoneally (daily for 30 days, n=5). Animals were monitored daily for weight changes and other abnormalities for 80 days. Animals were euthanized in a CO2 chamber at day 80, and blood, lung, liver, kidney, salivary gland, and lacrimal gland were collected for complete blood counts, blood chemistry, and histopathological analyses. Complete blood counts including white blood cells (WBC), red blood cells (RBC), hemoglobin (HGB), hematocrit (HCT), mean corpuscular volume (MCV), mean corpuscular hemoglobin (MCH), mean corpuscular hemoglobin concentration (MCHC), and platelet (PLT) were measured using scil Vet ABC™ Hematology Analyzer (scil animal care company, Gurnee, IL). Blood chemistry parameters including blood urea nitrogen (BUN), glucose (GLU), Alkaline Phosphatase (ALP), total protein (T-Pro), Alanine aminotransferase (ALT) and Creatinine (Cre) were measured with Spotchem EZ chemistry analyzer (Arkray USA, Edina, MN). Hematoxylin and eosin slides were generated for five organs and examined by certified veterinary pathologist.

recombinant cathepsin B = target: T1, recombinant cathepsin B (Homo sapiens, UniProt P07858); assay: Release of MMAE from prodrug by recombinant cathepsin B; assay type: biochemical; conditions: within 3 h of incubation with recombinant cathepsin B
T1 construct: purchased MilliporeSigma C8571
Procedure: Release of MMAE from prodrugs by a recombinant cathepsin B was analyzed using a modified method from previously published work. Dubowchik et al., 2002. Prodrug stock solutions (8 μL, 10 mM) were added to the 2 mL cathepsin B (MilliporeSigma, Cat #C8571, Burlington, MA, USA) containing buffer (25 mM acetate, 1 mM EDTA, pH 5, pre-warmed at 37° C.) at the final concentration of 30 nM (cathepsin B) and 40 μM (prodrug). Aliquots (200 μL) were periodically removed and enzymatic activity was stopped by the addition of thioprotease inhibitor E-64 (30 nM in the final solution, MilliporeSigma, Cat #E3132). The samples were centrifuged and the supernatants were analyzed by HPLC (Waters 600 E coupled with Varian prostar detector, Milford, MA, USA). Samples were prepared at 0, 10, 20, 30, 60, 90, and 120 min. Experiments were performed in triplicate.

[2] = Urinalyses from subcutaneous xenograft model (urine reagent strips); conditions: for urine protein / urine specific gravity: individual mice
[3] = Complete blood count in healthy mice; assay type: in vivo; conditions: C57BL/6 mice, 0.16 mg/kg
Procedure: as §2

[4] = Serum stability in murine serum (HPLC); assay type: in vitro ADME, mouse
Procedure: Serum stability of prodrugs was analyzed using a modified method from previously published work. Chu et al., 2012. Prodrug stock solution (8 μL, 10 mM) was incubated with 100% mouse serum (final concentration of the serum was 80% after the mixing with prodrug solution) at 37° C. Aliquots (50 μL) were periodically removed at 2, 4, 8, 24, and 48 h, and diluted with cold ice CH3OH (100 μL) to precipitate proteins. The samples were centrifuged, and the supernatants were analyzed by HPLC. Stability was calculated based on the peak area of the prodrug at each time point. Experiments were performed in triplicate.

PSMA+PC3/ML/PSMA cells = assay: Experimental metastatic model of PSMA-expressing PC
Procedure: A PSMA-expressing experimental metastatic model of human PC was used to evaluate efficacy of SBPD-1 on established metastatic tumors. […] PSMA+PC3/ML/PSMA cells were administered to NSG mice intravenously (IV) and tumors were allowed to establish for four weeks. PC3/ML/PSMA cells express firefly luciferase as an imaging reporter to allow tumor development to be monitored via weekly bioluminescence imaging (BLI).
For the metastatic model, NSG mice were injected with 0.75 million PC3/ML/PSMA cells via the tail vein. […] BLI was performed weekly using the IVIS Spectrum in vivo imaging system (Perkin Elmer, Waltham, MA).

[5] = Blood chemistry in healthy mice; assay type: in vivo; conditions: C57BL/6 mice
Procedure: as §1, §2

PSMA+PC3 PIP tumors = assay: Subcutaneous xenograft efficacy, PSMA+ PC3 PIP tumors; assay type: in vivo, NSG mice; conditions: for median survival time: 4-fold tumor volume scored as death
PSMA− PC3 flu tumors = assay: Subcutaneous xenograft efficacy, PSMA- PC3 flu tumors; assay type: in vivo, NSG mice
[6] = Serum stability in human serum; assay type: in vitro ADME
Procedure: Prior to in vivo potency, the stability of SBPD-1 and SBPD-2 in murine serum was evaluated. While 90% of SBPD-2 remained intact for 48 h in murine serum (FIG. 3a), SBPD-1 was metabolized more quickly in murine serum (FIG. 3a). […] SBPD-1, however, was stable in human serum (FIG. 3a). It has been reported that the valine-citrulline linker is stable in human and monkey serum, but that it can be hydrolyzed in mouse plasma via extracellular carboxylesterase 1c. Dorywalska et al., 2016; Anami et al., 2018. Based on those stability results, small, fractionated doses were applied for the murine efficacy study to avoid systemic toxicity that could affect the overall survival of the test animals.

Structure (SMILES): CC[C@H](C)[C@@H]([C@@H](CC(=O)N1CCC[C@H]1[C@H](OC)[C@@H](C)C(=O)N[C@H](C)[C@@H](O)c1ccccc1)OC)N(C)C(=O)[C@@H](NC(=O)[C@H](C(C)C)N(C)C(=O)OCc1ccc(NC(=O)[C@H](CCCNC(N)=O)NC(=O)[C@@H](NC(=O)CCCCCCC(=O)NCCCC[C@H](NC(=O)N[C@@H](CCC(=O)O)C(=O)O)C(=O)O)C(C)C)cc1)C(C)C [SBPD-1, (6S,9S,24S,28S)-1-Amino-6-((4-((5S,8S,11S,12R)-11-((S)-sec-butyl)-12-(2-((S)-2-((1R,2R)-3-(((1S,2R)-1-hydroxy-1-phenylpropan-2-yl)amino)-1-methoxy-2-methyl-3-oxopropyl)pyrrolidin-1-yl)-2-oxoethyl)-5,8-diisopropyl-4,10-dimethyl-3,6,9-trioxo-2,13-dioxa-4,7,10-triazatetradecyl)phenyl)carbamoyl)-9-isopropyl-1,8,11,18,26-pentaoxo-2,7,10,19,25,27-hexaazatriacontane-24,28,30-tricarboxylic acid] (X1-V[Cit][PABC][NMeV]V[Dil][Dolaproine]-X2)
- histopathological examination of lung, liver, kidneys, salivary and lacrimal glands ([1]; Day 80 after initiation of treatment, 160 μg/kg): no tissue damage
- signs of toxicity / weight ([1]; healthy C57BL/6 mice, 160 μg/kg IP daily for 30 days, monitored 80 days): did not show any signs of toxicity; also recorded: did not induce toxicity
- MMAE released (recombinant cathepsin B): 80%
- urine protein ([2]; Day 9, PC3/PIP, 0.02 mg/kg): 30
- urine specific gravity ([2]; Day 9, PC3/PIP, 0.02 mg/kg): 1.025 (3×) and 1.02 (2×)
- urine protein ([2]; Day 9, PC3/PIP, 0.04 mg/kg): 30 (3×) and trace (2×)
- urine specific gravity ([2]; Day 9, PC3/PIP, 0.04 mg/kg): 1.025
- urine protein ([2]; Day 9, PC3/PIP, 0.08 mg/kg): trace and 30 (4×)
- urine specific gravity ([2]; Day 9, PC3/PIP, 0.08 mg/kg): 1.025
- urine protein ([2]; Day 9, PC3/flu, 0.02 mg/kg): 30
- urine specific gravity ([2]; Day 9, PC3/flu, 0.02 mg/kg): 1.025 (4×) and 1.02
- urine protein ([2]; Day 9, PC3/flu, 0.04 mg/kg): 30
- urine specific gravity ([2]; Day 9, PC3/flu, 0.04 mg/kg): 1.025
- urine protein ([2]; Day 9, PC3/flu, 0.08 mg/kg): 300 (2×) and 30 (2×) and 100
- urine specific gravity ([2]; Day 9, PC3/flu, 0.08 mg/kg): 1.025
- urine protein ([2]; Day 20, PC3/PIP, 0.02 mg/kg): 30
- urine specific gravity ([2]; Day 20, PC3/PIP, 0.02 mg/kg): 1.025
- urine protein ([2]; Day 20, PC3/PIP, 0.04 mg/kg): 30
- urine specific gravity ([2]; Day 20, PC3/PIP, 0.04 mg/kg): 1.025
- urine protein ([2]; Day 20, PC3/PIP, 0.08 mg/kg): 30 (3×) and 100 (2×)
- urine specific gravity ([2]; Day 20, PC3/PIP, 0.08 mg/kg): 1.025
- urine protein ([2]; Day 20, PC3/flu, 0.02 mg/kg): 30
- urine specific gravity ([2]; Day 20, PC3/flu, 0.02 mg/kg): 1.025 (3×) and 1.01 and 1.03
- urine protein ([2]; Day 20, PC3/flu, 0.04 mg/kg): 30
- urine specific gravity ([2]; Day 20, PC3/flu, 0.04 mg/kg): 1.025 (2×) and 1.03 (2×)
- urine protein ([2]; Day 20, PC3/flu, 0.08 mg/kg): 300 (2×) and 30 (3×)
- urine specific gravity ([2]; Day 20, PC3/flu, 0.08 mg/kg): 1.025
- urine protein level and specific gravity (acute renal toxicity) ([2]; all test animals, Days 9 and 20, any dose tested): normal
- complete blood counts, abnormalities [3]: no abnormalities except for lower white blood cell count
- HCT ([3]; individual mice): 36% and 36.6% and 32.2% and 35.6% and 35.8%
- HGB ([3]; individual mice): 13.4 g/dl (2×) and 13.8 g/dl and 12.4 g/dl and 14 g/dl
- MCH ([3]; individual mice): 33.8 pg (3×) and 35 pg and 34.8 pg
- MCHC ([3]; individual mice): 75.8 g/dl (3×) and 76.4 g/dl and 78.2 g/dl
- MCV ([3]; individual mice): 90 μm^3 (4×) and 92 μm^3
- PLT ([3]; individual mice): 1280 10^3/mm^3 (2×) and 1068 10^3/mm^3 and 1132 10^3/mm^3 and 1262 10^3/mm^3
- RBC ([3]; individual mice): 8.08 10^6/mm^3 and 8.16 10^6/mm^3 and 7.02 10^6/mm^3 and 7.98 10^6/mm^3 and 8.02 10^6/mm^3
- WBC ([3]; individual mice): 1.6 10^3/mm^3 (2×) and 1.8 10^3/mm^3 and 1.4 10^3/mm^3 and 2 10^3/mm^3
- intact in serum ([4]; 8 h of incubation): more than 80%
- fraction representing parent compound ([4]; 24 h): less than half
- degradation of prodrug ([4]; by 48 h of incubation): the majority of the prodrug was fully degraded
- median survival (PSMA+PC3/ML/PSMA cells; 40 μg/kg daily IP for 30 days): 47 days
- median survival (PSMA+PC3/ML/PSMA cells; 80 μg/kg daily IP for 30 days): 56 days
- median survival (PSMA+PC3/ML/PSMA cells; 160 μg/kg daily IP for 30 days): 58 days
- BUN, creatinine, glucose, ALP, T-Pro, ALT compared with untreated mice ([5]; 160 μg/kg): did not show differences
- ALP ([5]; 0.16 mg/kg, individual mice): 94 IU/L (2×) and 108 IU/L and 96 IU/L and 85 IU/L
- ALT ([5]; 0.16 mg/kg, individual mice): 21 IU/L and 31 IU/L and 22 IU/L and 14 IU/L and 28 IU/L
- BUN ([5]; 0.16 mg/kg, individual mice): 28 mg/dl (2×) and 37 mg/dl (2×) and 27 mg/dl
- Cre ([5]; 0.16 mg/kg, individual mice): 1 mg/dl and 1.2 mg/dl and 1.1 mg/dl (2×) and 0.8 mg/dl
- GLU ([5]; 0.16 mg/kg, individual mice): 188 mg/dL and 248 mg/dL and 285 mg/dL and 219 mg/dL and 189 mg/dL
- T-Pro ([5]; 0.16 mg/kg, individual mice): 6.1 g/dl and 6.2 g/dl and 5.9 g/dl (2×) and 6 g/dl
- median survival time (PSMA+PC3 PIP tumors; 20 μg/kg daily IP for 30 days): 17 days
- time until previously undetectable tumors could be re-measured (PSMA+PC3 PIP tumors; 40 μg/kg): Approximately one week
- median survival time (PSMA+PC3 PIP tumors; 40 μg/kg daily IP for 30 days): 54 days
- time until re-appearance of tumors (PSMA+PC3 PIP tumors; 80 μg/kg): Two weeks
- median survival time (PSMA+PC3 PIP tumors; 80 μg/kg daily IP for 30 days): 69 days
- tumors at completion of treatment (PSMA+PC3 PIP tumors; doses of 40 and 80 μg/kg): undetectable
- median survival time (PSMA− PC3 flu tumors; 20 μg/kg daily IP for 30 days): 15 days
- median survival time (PSMA− PC3 flu tumors; 40 μg/kg daily IP for 30 days): 15 days
- median survival time (PSMA− PC3 flu tumors; 80 μg/kg daily IP for 30 days): 20 days
- stability in human serum [6]: stable

Structure (SMILES): CC[C@H](C)[C@@H](C(CC(=O)N1CCC[C@H]1[C@H](OC)[C@@H](C)C(=O)N[C@H](C)[C@@H](O)c1ccccc1)OC)N(C)C(=O)[C@@H](NC(=O)[C@H](C(C)C)N(C)C(=O)CC[C@H](NC(=O)CCCCCCC(=O)NCCCC[C@H](NC(=O)N[C@@H](CCC(=O)O)C(=O)O)C(=O)O)C(=O)O)C(C)C (stereo partly drawn) [SBPD-2, (4S,7S,10S,15S,30S,34S)-4-((S)-Sec-butyl)-3-(2-((S)-2-((1R,2R)-3-(((1S,2R)-1-hydroxy-1-phenylpropan-2-yl)amino)-1-methoxy-2-methyl-3-oxopropyl)pyrrolidin-1-yl)-2-oxoethyl)-7,10-diisopropyl-5,11-dimethyl-6,9,12,17,24,32-hexaoxo-2-oxa-5,8,11,16,25,31,33-heptaazahexatriacontane-15,30,34,36-tetracarboxylic acid]
- remained intact ([4]; 48 h): 90%
